Laboratory results taken from ChEMBL document CHEMBL5724914, “Linking interpersonal differences in gut microbiota composition and drug biotransformation activity” (2024).

Key:
[1] = human gut metagenome, 24 h, 2 µM
[2] = (§1) The drug is tested on Z-030 corresponding to mouse gut metagenome with ENA study accession number: PRJEB37062 and ENA sample accession number: ERS12561829 for biotransformation under anaerobic condition. The drug concentrations were measured over 9 timepoints collected between 0 and 24 hours of incubation by liquid-chromatography-coupled mass spectrometry (LC–MS); conditions: 2 µM
[3] = human gut metagenome, 24 h, 2 µM; remark: listed apart in the source
[4] = as §1, with “Z-012” for “Z-030”, “to” for “to mouse gut”, “ERS12561812” for “ERS12561829”; conditions: 2 µM
[5] = as §1, with “Z-029” for “Z-030”, “rat” for “mouse”, “ERS12561828” for “ERS12561829”; conditions: 2 µM
[6] = as §1, with “Z-024” for “Z-030”, “pig” for “mouse”, “ERS12561823” for “ERS12561829”; conditions: 2 µM
[7] = human gut metagenome, 24 h, 2 µM; remark: listed apart in the source
[8] = as §1, with “WLS-082” for “Z-030”, “human” for “mouse”, “ERS12561751” for “ERS12561829”; conditions: 2 µM
[9] = as §1, with “Z-005” for “Z-030”, “to” for “to mouse gut”, “ERS12561805” for “ERS12561829”; conditions: 2 µM
[10] = human gut metagenome, 24 h, 2 µM; remark: listed apart in the source
[11] = as §1, with “WLS-077” for “Z-030”, “human” for “mouse”, “ERS12561750” for “ERS12561829”; conditions: 2 µM
[12] = human gut metagenome, 24 h, 2 µM; remark: listed apart in the source
[13] = human gut metagenome, 24 h, 2 µM; remark: listed apart in the source
[14] = human gut metagenome, 24 h, 2 µM; remark: listed apart in the source
[15] = as §1, with “Z-007” for “Z-030”, “rat” for “mouse”, “ERS12561807” for “ERS12561829”; conditions: 2 µM
[16] = human gut metagenome, 24 h, 2 µM; remark: listed apart in the source
[17] = as §1, with “Z-001” for “Z-030”, “ERS12561801” for “ERS12561829”; conditions: 2 µM
[18] = as §1, with “WLS-090” for “Z-030”, “human” for “mouse”, “ERS12561753” for “ERS12561829”; conditions: 2 µM
[19] = human gut metagenome, 24 h, 2 µM; remark: listed apart in the source
[20] = human gut metagenome, 24 h, 2 µM; remark: listed apart in the source
Also: call rule not given here.

Row | Compound | Bacterial Biotransformation [1] | Bacterial Biotransformation [2] | Bacterial Biotransformation [3] | Bacterial Biotransformation [4] | Bacterial Biotransformation [5] | Bacterial Biotransformation [6] | Bacterial Biotransformation [7] | Bacterial Biotransformation [8] | Bacterial Biotransformation [9] | Bacterial Biotransformation [10] | Bacterial Biotransformation [11] | Bacterial Biotransformation [12] | Bacterial Biotransformation [13] | Bacterial Biotransformation [14] | Bacterial Biotransformation [15] | Bacterial Biotransformation [16] | Bacterial Biotransformation [17] | Bacterial Biotransformation [18] | Bacterial Biotransformation [19] | Bacterial Biotransformation [20]
1 | COCCc1ccc(OCC(O)CNC(C)C)cc1.COCCc1ccc(OCC(O)CNC(C)C)cc1.O=C(O)C(O)C(O)C(=O)O (stereo not given) [METOPROLOL TARTRATE] | Compound NOT metabolized | Compound NOT metabolized | Compound metabolized | Compound NOT metabolized | Compound NOT metabolized | Compound NOT metabolized | Compound NOT metabolized | Compound NOT metabolized | Compound NOT metabolized | Compound NOT metabolized | Compound NOT metabolized | Compound NOT metabolized | Compound metabolized | Compound metabolized | Compound NOT metabolized | Compound NOT metabolized | Compound NOT metabolized | Compound metabolized | Compound NOT metabolized | Compound NOT metabolized
2 | Fc1ccc([C@@H]2CCNC[C@H]2COc2ccc3c(c2)OCO3)cc1 [PAROXETINE] | Compound NOT metabolized | Compound NOT metabolized | Compound NOT metabolized | Compound NOT metabolized | Compound NOT metabolized | Compound metabolized | Compound metabolized | Compound metabolized | Compound metabolized | Compound metabolized | Compound NOT metabolized | Compound NOT metabolized | Compound metabolized | Compound metabolized | Compound NOT metabolized | Compound metabolized | Compound NOT metabolized | Compound metabolized | Compound NOT metabolized | Compound NOT metabolized
3 | CC(C)(C#N)c1cc(Cn2cncn2)cc(C(C)(C)C#N)c1 [ANASTROZOLE] | Compound NOT metabolized | Compound NOT metabolized | Compound NOT metabolized | Compound NOT metabolized | Compound NOT metabolized | Compound metabolized | Compound NOT metabolized | Compound NOT metabolized | Compound NOT metabolized | Compound NOT metabolized | Compound NOT metabolized | Compound NOT metabolized | Compound metabolized | Compound metabolized | Compound NOT metabolized | Compound NOT metabolized | Compound NOT metabolized | Compound metabolized | Compound NOT metabolized | Compound NOT metabolized
4 | CCN(CC)CCOC(=O)C(Cc1cccc2ccccc12)CC1CCCO1.O=C(O)C(=O)O (stereo not given) [NAFRONYL OXALATE] | Compound NOT metabolized | Compound NOT metabolized | Compound metabolized | Compound metabolized | Compound NOT metabolized | Compound metabolized | Compound metabolized | Compound metabolized | Compound metabolized | Compound metabolized | Compound metabolized | Compound metabolized | Compound metabolized | Compound metabolized | Compound NOT metabolized | Compound metabolized | Compound NOT metabolized | Compound metabolized | Compound NOT metabolized | Compound metabolized
